{"source": "patent US7662789B2", "about": "“Peptide substance restoring myocardium function” (“Access Bioscience” CJSC, priority 2004, dated 2010)", "key": {"[1]": {"system": "organotypic cardiac culture explants", "conditions": "3 days incubation", "protocol": "Cardiac tissue explants (from the left and right ventricles) of pubertal Wistar rats were cultivated in petri dishes with collagen bottom cover. The nutritious medium was composed of 35% Eagle's medium, 35% Hanx solution, 25% calf fetal serum and 5% of chicken embryonic extract with added glucose, insulin, gentamycin and glutamin. Ala-Glu-Asp-Arg (SEQ ID NO:1) tetrapeptide was added into the cultural medium in fixed concentrations, from 0.01 to 20.0 ng per ml of nutritious medium. After 3 days of incubation at the temperature of 37° C. the increase in the area of explants was identified using phase contrast microscope. Biological activity of the preparation was expressed in the change of square index (SI) of the explants cultivated in the medium containing the peptide, as compared to the control."}, "[2]": {"system": "chlorine-calcium arrhythmia in rats", "assay": "Chlorine-calcium (CaCl2) arrhythmia in rats", "type": "in vivo", "conditions": "for Death after the first arrhythmogen administration, abs.: 10 animals", "protocol": "The experiment was conducted on 60 white mongrel rats with body weight of 180-200 g. The animals were randomly subdivided into 6 groups, each consisting of 10 animals. The rats were narcotized with urethane and received 220 mg/kg of 10% CaCl2 solution. Ala-Glu-Asp-Arg tetrapeptide was administered to the animals intraperitoneally, once, in the doses of 0.05-1.0 μg/kg in sterile 0.9% NaCl solution."}, "[3]": {"system": "experimental myocardium infarction in rats", "assay": "Experimental myocardium infarction by left coronary artery vasoligation in rats", "type": "in vivo", "conditions": "for Necrosis zone size, % of ventricle mass: 0.05 μg per animal i.p. 1, 3, 5 h after occlusion; for Death rate: 20 animals per group", "protocol": "The experiment was conducted on 40 white mongrel rats each weighing 180-200 g. The animals were randomly subdivided into two groups, 20 animals in each. Myocardium infarction (MI) was induced by vasoligation of the left coronary artery. Ala-Glu-Asp-Arg tetrapeptide was administered to the animals intraperitoneally in the dose of 0.05 μg per animal in sterile 0.9% NaCl solution three times—in 1, 3 and 5 hours after coronary occlusion. Rats were decapitated in 6 and 24 hours after the surgery. Animals subjected to the surgery, which intraperitoneally received 0.9% NaCl solution, served as the control. MI zone size was identified gravimetrically. Myocardium fragments were fixed for light and electronic microscopy, part of the material was frozen in liquid nitrogen for biochemical studies."}, "white mongrel male rats": {"system": "white mongrel male rats", "assay": "Sub-acute toxicity, 90 days intramuscular in rats", "type": "in vivo", "conditions": "90 days i.m. daily; 1 μg/kg, 0.1 mg/kg, 1 mg/kg; 100-1000 times the therapeutic doses", "protocol": "The study of sub-acute toxicity was conducted on 60 white mongrel male rats with body weight of 160-240 g. […] Before the substance's administration, as well as on the 30th, 60th and 90th day after the beginning of the course the morphological composition and the properties of the animals' peripheric blood were studied. Upon completion of the experiment the biochemical and coagulological indices of the animals' blood were studied."}, "isolated cardiomyocytes": {"system": "isolated cardiomyocytes", "assay": "Cardiomyocyte bioenergetics, polarographic oxygen consumption", "type": "cell-based, rats", "protocol": "Cardiomyocytes were extracted from the cardiac muscle of pubertal rats by Vahouny. Oxygen consumption by isolated cardiomyocytes was registered polarographically at the temperature of 30° C. Part of cardiomyocytes suspension was oxygenated by saturation with carbogen for 1-3 hours at room temperature. The other part of suspension was not oxygenated (conditions of moderate hypoxia). […] The tetrapeptide was introduced into the medium in the concentration of 10 ng/ml."}, "[4]": {"system": "adrenalin dystrophy in rat myocardium", "assay": "Adrenalin dystrophy in rat myocardium", "type": "in vivo, rats", "conditions": "for Diene conjugates content / Malon dialdegide content: 24 hours", "protocol": "The experiment was conducted on 30 white mongrel rats with body weight of 180-200 g. The animals were randomly subdivided into three groups, each consisting of 10 animals. Adrenalin dystrophy was induced by administering the fresh adrenalin solution (“Serva”, USA) intraperitoneally in the dose of 2 mg/kg. The control animals received 0.9% NaCl solution. Then the experimental animals were in 1 and 5 hours treated with Ala-Glu-Asp-Arg (SEQ ID NO:1) tetrapeptide in the dose of 0.05 μg per animal in sterile 0.9% NaCl solution. In 4 hours since the beginning of the experiment cardiac muscle bioptates weighing approximately 10 mg were taken for the identification of cardiac dehydrogenases activity and glycogen content in the myocardium. In 24 hours the animals were killed by momentary decapitation. Left ventricle fragments were frozen in […]. In cryostatic slices the activity of succinatedehydrogenase (SDH) was histochemically identified, as well as of NADN-dehydrogenase (NADN-DH), lactatedehydrogenase and glycogen content."}, "[5]": {"conditions": "0.05 μg per animal i.p., 6 hours"}, "[6]": {"conditions": "0.05 μg per animal i.p., 24 hours"}, "[7]": {"conditions": "adrenalin + 0.05 μg per animal, liver"}, "[8]": {"conditions": "adrenalin + tetrapeptide, 4 hours"}}, "note": "Where two headings read alike, the source gives them in different places. Marks after values point to notes of the source that are not given here. Where a SMILES comes first, the peptide text is derived from it."}
{"smiles": "C[C@H](N)C(=O)N[C@@H](CCC(=O)O)C(=O)N[C@@H](CC(=O)O)C(=O)N[C@@H](CCCNC(=N)N)C(=O)O", "note": "[Tetrapeptide, L-alanyl-L-glutamyl-L-aspartyl-L-arginine] (H-AEDR-OH)", "values": [{"measurement": "SI, % with respect to the control", "setting": "[1]; 0.01 ng/ml", "value": 10, "unit": "%"}, {"measurement": "SI, % with respect to the control", "setting": "[1]; 0.05 ng/ml", "value": "20* %"}, {"measurement": "SI, % with respect to the control", "setting": "[1]; 0.1 ng/ml", "value": "22* %"}, {"measurement": "SI, % with respect to the control", "setting": "[1]; 0.5 ng/ml", "value": "20* %"}, {"measurement": "SI, % with respect to the control", "setting": "[1]; 1.0 ng/ml", "value": "15* %"}, {"measurement": "SI, % with respect to the control", "setting": "[1]; 2.0 ng/ml", "value": "20* %"}, {"measurement": "SI, % with respect to the control", "setting": "[1]; 10.0 ng/ml", "value": "27* %"}, {"measurement": "SI, % with respect to the control", "setting": "[1]; 20.0 ng/ml", "value": 8, "unit": "%"}, {"measurement": "Death after the first arrhythmogen administration, %", "setting": "[2]; 0.05 μg/kg i.p. once", "value": 50, "unit": "%"}, {"measurement": "Frequency of sinus rhythm restoration after the first CaCl2 administration", "setting": "[2]; 0.05 μg/kg i.p. once", "value": 27.0, "unit": "%"}, {"measurement": "Frequency of ventricle fibrillation development in the course of the experiment", "setting": "[2]; 0.05 μg/kg i.p. once", "value": 60.3, "unit": "%"}, {"measurement": "Maximum tolerable arrhythmogen dose", "setting": "[2]; 0.05 μg/kg i.p. once", "value": 220, "unit": "mg/kg"}, {"measurement": "Death after the first arrhythmogen administration, abs.", "setting": "[2]; 0.05 μg/kg i.p. once", "value": 5}, {"measurement": "Death after the first arrhythmogen administration, %", "setting": "[2]; 0.1 μg/kg i.p. once", "value": 50, "unit": "%"}, {"measurement": "Frequency of sinus rhythm restoration after the first CaCl2 administration", "setting": "[2]; 0.1 μg/kg i.p. once", "value": 29.6, "unit": "%"}, {"measurement": "Frequency of ventricle fibrillation development in the course of the experiment", "setting": "[2]; 0.1 μg/kg i.p. once", "value": 45.8, "unit": "%"}, {"measurement": "Maximum tolerable arrhythmogen dose", "setting": "[2]; 0.1 μg/kg i.p. once", "value": 220, "unit": "mg/kg"}, {"measurement": "Death after the first arrhythmogen administration, abs.", "setting": "[2]; 0.1 μg/kg i.p. once", "value": 5}, {"measurement": "Increase of frequency of heart contractions (FHC)", "setting": "[2]; 0.2 μg/kg and 0.5 μg/kg, bradicardia rats", "value": "12.3-48.6%"}, {"measurement": "Death after the first arrhythmogen administration, %", "setting": "[2]; 0.2 μg/kg i.p. once", "value": 30, "unit": "%"}, {"measurement": "Frequency of sinus rhythm restoration after the first CaCl2 administration", "setting": "[2]; 0.2 μg/kg i.p. once", "value": "49.0* %"}, {"measurement": "Frequency of ventricle fibrillation development in the course of the experiment", "setting": "[2]; 0.2 μg/kg i.p. once", "value": "35.2* %"}, {"measurement": "Maximum tolerable arrhythmogen dose", "setting": "[2]; 0.2 μg/kg i.p. once", "value": 440, "unit": "mg/kg"}, {"measurement": "Death after the first arrhythmogen administration, abs.", "setting": "[2]; 0.2 μg/kg i.p. once", "value": 3}, {"measurement": "Death after the first arrhythmogen administration, %", "setting": "[2]; 0.5 μg/kg i.p. once", "value": 40, "unit": "%"}, {"measurement": "Frequency of sinus rhythm restoration after the first CaCl2 administration", "setting": "[2]; 0.5 μg/kg i.p. once", "value": "39.5* %"}, {"measurement": "Frequency of ventricle fibrillation development in the course of the experiment", "setting": "[2]; 0.5 μg/kg i.p. once", "value": "39.1* %"}, {"measurement": "Maximum tolerable arrhythmogen dose", "setting": "[2]; 0.5 μg/kg i.p. once", "value": 440, "unit": "mg/kg"}, {"measurement": "Death after the first arrhythmogen administration, abs.", "setting": "[2]; 0.5 μg/kg i.p. once", "value": 4}, {"measurement": "Death after the first arrhythmogen administration, %", "setting": "[2]; 1.0 μg/kg i.p. once", "value": 60, "unit": "%"}, {"measurement": "Frequency of sinus rhythm restoration after the first CaCl2 administration", "setting": "[2]; 1.0 μg/kg i.p. once", "value": 16.3, "unit": "%"}, {"measurement": "Frequency of ventricle fibrillation development in the course of the experiment", "setting": "[2]; 1.0 μg/kg i.p. once", "value": 43.6, "unit": "%"}, {"measurement": "Maximum tolerable arrhythmogen dose", "setting": "[2]; 1.0 μg/kg i.p. once", "value": 220, "unit": "mg/kg"}, {"measurement": "Death after the first arrhythmogen administration, abs.", "setting": "[2]; 1.0 μg/kg i.p. once", "value": 6}, {"measurement": "Most efficient dose", "setting": "[2]; doses 0.05-1.0 μg/kg i.p. tested", "value": 0.0002, "unit": "mg/kg"}, {"measurement": "Necrosis zone size, % of ventricle mass", "setting": "[3]; 6 hours", "value": "38.1 ± 1.8 % of ventricle mass"}, {"measurement": "Necrosis zone size, % of ventricle mass", "setting": "[3]; 24 hours", "value": "49.6 ± 1.6 % of ventricle mass"}, {"measurement": "Content in the blood serum: CPK", "setting": "[3]; [5]", "value": "961 ± 52", "unit": "nmole/s · 1"}, {"measurement": "Content in the blood serum: LDH", "setting": "[3]; [5]", "value": "309 ± 16", "unit": "nmole/s · 1"}, {"measurement": "Content in the blood serum: glucose", "setting": "[3]; [5]", "value": "3.12 ± 0.09", "unit": "mmol/L"}, {"measurement": "Glycogen content in the myocardium", "setting": "[3]; [5]", "value": "1.05 ± 0.12 g/kg of the tissue"}, {"measurement": "Death rate", "setting": "[3]; [5]", "value": 2}, {"measurement": "Content in the blood serum: CPK", "setting": "[3]; [6]", "value": "923 ± 38", "unit": "nmole/s · 1"}, {"measurement": "Content in the blood serum: LDH", "setting": "[3]; [6]", "value": "201 ± 15", "unit": "nmole/s · 1"}, {"measurement": "Content in the blood serum: glucose", "setting": "[3]; [6]", "value": "3.01 ± 0.11", "unit": "mmol/L"}, {"measurement": "Glycogen content in the myocardium", "setting": "[3]; [6]", "value": "1.18 ± 0.12 g/kg of the tissue"}, {"measurement": "Death rate", "setting": "[3]; [6]", "value": 1}, {"measurement": "Mortality rate during the first 24 hours after infarction", "setting": "[3]; 0.05 μg per animal i.p., control 45%", "value": 15, "unit": "%"}, {"measurement": "Decrease of glucose content in the blood", "setting": "[3]; acute myocardium ischemia, versus control", "value": "~1.5", "unit": "times"}, {"measurement": "Coefficient of mitochondria energy efficiency", "setting": "[3]; electronograms, 24 hours since beginning of MI, control 41.5±2.4", "value": "93.2±2.3", "unit": "%"}, {"measurement": "Sub-acute toxicity, side effects", "setting": "white mongrel male rats", "value": "absence of side effects"}, {"measurement": "Coefficient of breath stimulation (breath rate with succinate to initial breath rate)", "setting": "isolated cardiomyocytes; 10 ng/ml, hypoxia, succinate 1×10^−4 M, without tetrapeptide 7.35±0.26", "value": "1.97±0.26"}, {"measurement": "NAD.H2 oxidation by cardiomyocytes", "setting": "isolated cardiomyocytes; tetrapeptide in the medium", "value": "increases NAD.H2 oxidation by cardiomyocytes"}, {"measurement": "Quantity of diene conjugates in the myocardium", "setting": "[4]; 24 hours after induction of dystrophy, control 176±24", "value": "110 ± 17", "unit": "nmol/g"}, {"measurement": "Diene conjugates content", "setting": "[4]; adrenalin 2 mg/kg i.p. + 0.05 μg per animal at 1 and 5 h, heart", "value": "110 ± 17 nmole/g of tissue"}, {"measurement": "Malon dialdegide content", "setting": "[4]; adrenalin + 0.05 μg per animal, heart", "value": "173 ± 25 nmole/g of tissue"}, {"measurement": "Diene conjugates content", "setting": "[4]; [7]", "value": "92 ± 11 nmole/g of tissue"}, {"measurement": "Malon dialdegide content", "setting": "[4]; [7]", "value": "270 ± 56 nmole/g of tissue"}, {"measurement": "Enzyme activity in the myocardium tissue: LDH", "setting": "[4]; [8]", "value": "0.154 ± 0.011", "unit": "rel. optical density unit"}, {"measurement": "Enzyme activity in the myocardium tissue: NADN-DH", "setting": "[4]; [8]", "value": "0.344 + 0.019 rel. optical density unit"}, {"measurement": "Enzyme activity in the myocardium tissue: SDH", "setting": "[4]; [8]", "value": "0.284 ± 0.013", "unit": "rel. optical density unit"}, {"measurement": "Glycogen content", "setting": "[4]; adrenalin + tetrapeptide, myocardium, 4 hours", "value": "0.168±0.021", "unit": "rel. optical density unit"}]}
